Results on two compounds are retold here after ChEMBL document CHEMBL5346969 (J Med Chem, 2023).

Active and inactive are the calls of the source. No cut-off for these calls is given here.

The target of data set [1] is T1, Phospholipid hydroperoxide glutathione peroxidase GPX4 (Homo sapiens) (UniProt P36969).
T1 sequence (whole entry): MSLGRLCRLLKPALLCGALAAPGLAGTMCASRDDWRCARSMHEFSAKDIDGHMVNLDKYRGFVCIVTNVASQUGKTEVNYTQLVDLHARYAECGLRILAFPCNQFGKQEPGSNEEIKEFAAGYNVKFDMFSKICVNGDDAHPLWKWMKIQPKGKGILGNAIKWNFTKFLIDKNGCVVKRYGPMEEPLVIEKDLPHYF
Nature of the data set: Binding affinity to GPX4 (unknown origin) at Cys66 residue assessed as change in mass of single charged y4+ ion at 100 uM incubated for 1.5 hrs by SDS-PAGE based LC-MS/MS analysis.

Data set [2] addresses T1, Phospholipid hydroperoxide glutathione peroxidase GPX4 (Homo sapiens). The data set is described as follows: Binding affinity to GPX4 (unknown origin) at Cys66 residue assessed as change in mass of single charged y5+ ion at 100 uM incubated for 1.5 hrs by SDS-PAGE based LC-MS/MS analysis.
Data set [3] relates to MDA-MB-231. The data set is described as follows: Induction of ferroptosis in siRNA mediated GPX4 knockdown human MDA-MB-231 cells with assessed as change in xCT protein expression level at 20 nM incubated for 8 hrs by Western blot analysis. It counts as functional, cell-based. (In general: A western blot detects proteins with antibodies after separation by electrophoresis.)

The target in data set [4] is T1, Phospholipid hydroperoxide glutathione peroxidase GPX4 (Homo sapiens). The data set is described as follows: Binding affinity to GPX4 (unknown origin) at Cys66 residue assessed as change in mass of single charged y2+ ion at 100 uM incubated for 1.5 hrs by SDS-PAGE based LC-MS/MS analysis.
Data set [5] shares this target. The data set is described as follows: Binding affinity to GPX4 (unknown origin) at Cys66 residue assessed as change in mass of single charged y6+ ion at 100 uM incubated for 1.5 hrs by SDS-PAGE based LC-MS/MS analysis.
Data set [6] has the same target. The data set is described as follows: Binding affinity to GPX4 (unknown origin) at Cys66 residue assessed as change in mass of single charged y3+ ion at 100 uM incubated for 1.5 hrs by SDS-PAGE based LC-MS/MS analysis.
For data set [7], the system named is MDA-MB-231. Nature of the data set: Induction of ferroptosis in siRNA mediated GPX4 knockdown human MDA-MB-231 cells with assessed as change in GPX4 protein expression level at 20 nM incubated for 8 hrs by Western blot analysis. The format is functional, cell-based.
In data set [8] the test system is MDA-MB-231. The data set is described as follows: Induction of ferroptosis in siRNA mediated GPX4 knockdown human MDA-MB-231 cells with assessed as change in ACSL4 protein expression level at 20 nM incubated for 8 hrs by Western blot analysis. It counts as functional, cell-based.
Data set [9] can be described thus: Clearance in rat at 10 mg/kg, ip and measured upto 24 hrs by LC-MS/MS analysis. The format is ADME, organism-based. As to conditions: in vivo.
Data set [10] is described as follows: Half life in rat at 10 mg/kg, ip and measured upto 24 hrs by LC-MS/MS analysis. It counts as ADME, organism-based. The note with it: in vivo.
For data set [11], the system named is MDA-MB-231. The data set is described as follows: Induction of ferroptosis in human MDA-MB-231 cells with assessed as reduction in cell viability at 5 to 20 nM incubated for 4 to 10 hrs by MTT assay. It counts as functional, cell-based. As to conditions: dose 5-20 nM, time 4-10 hrs. (Tetrazolium assays rely on reduction of a dye to a coloured formazan, in cell work by metabolically active cells.)

Data set [12] can be described thus: Toxicity in immunodeficient BALB/c mouse assessed as bone marrow suppression by measuring HGB level at 20 mg/kg, ip for 14 days by whole blood analysis. It counts as organism-based. As to conditions: in vivo, 336 h, time 14 day.

As for `COc1cc(N(C(=O)CCl)c2ccc3c(c2)OCCO3)cc(OC)c1F`, the result (in data set [1]; in [2]; in the data set with MDA-MB-231 [3]; in data set [4]; in data set [5]; in data set [6]) was inactive. The outcome in the data set with MDA-MB-231 [7] and in the data set with MDA-MB-231 [8] was inactive. The compound also gave a CL in data set [9] of 13.8 mL/min/kg. In [10], this compound yielded a t1/2 of 1.9 h. In addition, in the data set on MDA-MB-231 [11], the Activity result is “Dose-Dependent Effect”.
Regarding `COc1cc(N(C(=O)CBr)c2ccc3c(c2)OCCO3)cc(OC)c1F`, in data set [12], the Activity result is “Toxic”.
